The results in this text go back to ChEMBL document CHEMBL4028827, “Discovery of indazole aldosterone synthase (CYP11B2) inhibitors as potential treatments for hypertension” (Bioorg Med Chem Lett, 2017).

Data set [1] concerns the target T1, Cytochrome P450 11B1, mitochondrial (Homo sapiens, UniProt P15538).
T1 sequence (P15538 whole entry): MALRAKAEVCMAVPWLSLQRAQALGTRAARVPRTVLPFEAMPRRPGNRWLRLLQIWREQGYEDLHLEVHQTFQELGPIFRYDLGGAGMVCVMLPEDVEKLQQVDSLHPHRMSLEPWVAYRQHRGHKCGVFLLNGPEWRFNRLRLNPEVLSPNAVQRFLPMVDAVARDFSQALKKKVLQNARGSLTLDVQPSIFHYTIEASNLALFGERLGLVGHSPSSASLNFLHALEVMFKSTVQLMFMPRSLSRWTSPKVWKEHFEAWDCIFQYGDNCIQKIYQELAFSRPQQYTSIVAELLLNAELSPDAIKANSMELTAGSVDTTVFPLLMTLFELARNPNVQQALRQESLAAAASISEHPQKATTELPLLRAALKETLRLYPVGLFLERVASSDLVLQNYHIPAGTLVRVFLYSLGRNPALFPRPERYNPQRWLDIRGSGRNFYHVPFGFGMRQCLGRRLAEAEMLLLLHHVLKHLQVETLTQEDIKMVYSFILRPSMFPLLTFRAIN
The data set can be described thus: Inhibition of human CYP11B1-8C7 expressed in Chinese hamster V79 cells using 11-deoxycortisol as substrate preincubated for 1 hr followed by substrate addition measured for 3 hrs by HTRF assay. Format: ADME, cell-based. In general terms: In TR-FRET formats the signal depends on donor and acceptor labels being close together.

Data set [2] concerns the target T2, Cytochrome P450 11B2, mitochondrial (Homo sapiens, UniProt P19099).
T2 sequence (P19099 whole entry): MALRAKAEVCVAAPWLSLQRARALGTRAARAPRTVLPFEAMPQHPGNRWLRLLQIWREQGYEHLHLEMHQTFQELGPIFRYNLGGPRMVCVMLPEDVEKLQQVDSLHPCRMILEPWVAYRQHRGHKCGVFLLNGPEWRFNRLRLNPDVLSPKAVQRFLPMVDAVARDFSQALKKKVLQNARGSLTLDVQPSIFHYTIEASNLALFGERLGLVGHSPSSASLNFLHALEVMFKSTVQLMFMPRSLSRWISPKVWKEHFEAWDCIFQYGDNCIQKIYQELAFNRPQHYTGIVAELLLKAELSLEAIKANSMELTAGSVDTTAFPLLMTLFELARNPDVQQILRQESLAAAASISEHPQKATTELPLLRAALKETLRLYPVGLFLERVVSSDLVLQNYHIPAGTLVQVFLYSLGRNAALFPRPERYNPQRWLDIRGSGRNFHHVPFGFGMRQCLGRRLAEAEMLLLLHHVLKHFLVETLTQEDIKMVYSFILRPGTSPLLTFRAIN
The data set can be described thus: Inhibition of human CYP11B2-CLE9 expressed in Chinese hamster V79 cells using 11-deoxycorticosterone as substrate preincubated for 1 hr followed by substrate addition measured for 3 hrs by HTRF assay. Format: cell-based.

Data set [3] is described as follows: Intrinsic clearance in rat liver microsomes at […] preincubated for 10 mins followed by NADPH addition measured after 45 mins by LC-MS analysis. The conditions noted are these: read-out: CLH. Format: ADME, microsome. A general note: Liver microsomes are vesicles of endoplasmic reticulum, rich in cytochrome P450 enzymes.
A short description of data set [4]: Selectivity ratio of IC50 for human CYP11B1-8C7 expressed in Chinese hamster V79 cells to IC50 for human CYP11B2-CLE9 expressed in Chinese hamster V79 cells.

The term IC50 denotes the point on the concentration scale where inhibition reaches its midpoint. A higher IC50 goes with a need for much substance. For `CC(C)(O)c1cncc(-n2ncc3c(F)ccc(F)c32)c1`, the results for the IC50 in data set [1] and in data set [2] were 1.8 to 8.9 nM and 0.3 to 0.8 nM, respectively. Besides, the CLint scaled in data set [3] is less than 20 mL/min/kg. The “Ratio IC50” value in data set [4] is reported as 6 - 11.
The like results for `CC(C)(O)c1cncc(-n2ncc3cc(C(F)(F)F)ccc32)c1` were, in that order, 1200 to 1240 nM, 507 to 510 nM, less than 20 mL/min/kg and 2.
For `CC(C)(O)c1cncc(-n2ncc3c(F)cccc32)c1`, in that order: 149 to 150 nM, 7.58 to 8 nM, 64 mL/min/kg and 19.
For `CC(C)(O)c1cncc(-n2ncc3ccc(F)cc32)c1`, in that order: 1990 to 2000 nM, 78.5 to 79 nM, 83 mL/min/kg and 25.
